In assay [1] the target is T1, hMeprin β (Homo sapiens, UniProt Q16820).
T1 sequence (Q16820 62-701): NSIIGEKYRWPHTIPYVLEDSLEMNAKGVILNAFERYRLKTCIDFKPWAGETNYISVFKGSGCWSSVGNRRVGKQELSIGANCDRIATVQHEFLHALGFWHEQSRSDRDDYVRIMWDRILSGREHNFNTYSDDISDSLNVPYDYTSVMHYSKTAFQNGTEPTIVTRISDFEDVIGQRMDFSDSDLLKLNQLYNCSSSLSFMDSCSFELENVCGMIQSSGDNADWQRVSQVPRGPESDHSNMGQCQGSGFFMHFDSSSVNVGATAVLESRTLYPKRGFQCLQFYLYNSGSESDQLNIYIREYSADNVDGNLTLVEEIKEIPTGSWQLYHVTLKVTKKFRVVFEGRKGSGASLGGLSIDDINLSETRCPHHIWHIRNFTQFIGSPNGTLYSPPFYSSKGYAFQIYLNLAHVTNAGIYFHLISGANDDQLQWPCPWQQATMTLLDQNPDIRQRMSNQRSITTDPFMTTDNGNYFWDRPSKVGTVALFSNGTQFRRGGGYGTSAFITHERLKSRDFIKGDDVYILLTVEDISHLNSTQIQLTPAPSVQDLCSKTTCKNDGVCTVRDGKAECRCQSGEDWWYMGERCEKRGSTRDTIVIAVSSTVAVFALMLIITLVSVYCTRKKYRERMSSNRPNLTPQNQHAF
In words: Enzymatic assay, quenched peptide substrate cleavage, method B. Format: biochemical. The settings on record: geometric mean (geometric SD factor in parentheses); for pKi: Morrison's equation, read-out: Meprin beta Ki(app); for pIC50: read-out: Meprin beta IC50. The protocol:
(§1) The determination of enzymatic activity was based on the cleavage of internally quenched peptide substrates. A typical assay of 250 μl total volume measured in black 96 well plates consisted of 100 μl buffer, 50 μl enzyme at a final concentration of 5e-8 M to 2e-10 M, 50 μl substrate (0.15 to 80 μM, in buffer, 0.5% DMSO) and 50 μl inhibitor solution (in buffer, 1% DMSO). In case of 125 μl assay volume (black 96 half area well plates) all volumes were cut in half. Enzymatic activity of ADAMs was measured in 384 well plates with 60 μl total assay volume consisting of 20 μl inhibitor, 20 μl buffer, 10 μl enzyme and 10 μl substrate.
(§2) Based on method B Ki^(app) values were determined using Morrison's equation. All measurements were performed using a fluorescence plate reader (FLUOSTAR OPTIMA, BMG Labtech) at 30° C. The kinetic parameters were determined at least in duplicates on separate days. The excitation/emission wavelength was 340/420 nm. The kinetic data was evaluated using GRAFIT software (version 7.0.3, Erithacus Software).

The target of assay [2] is T2, hMeprin α (Homo sapiens, UniProt Q16819).
T2 sequence (Q16819 66-746): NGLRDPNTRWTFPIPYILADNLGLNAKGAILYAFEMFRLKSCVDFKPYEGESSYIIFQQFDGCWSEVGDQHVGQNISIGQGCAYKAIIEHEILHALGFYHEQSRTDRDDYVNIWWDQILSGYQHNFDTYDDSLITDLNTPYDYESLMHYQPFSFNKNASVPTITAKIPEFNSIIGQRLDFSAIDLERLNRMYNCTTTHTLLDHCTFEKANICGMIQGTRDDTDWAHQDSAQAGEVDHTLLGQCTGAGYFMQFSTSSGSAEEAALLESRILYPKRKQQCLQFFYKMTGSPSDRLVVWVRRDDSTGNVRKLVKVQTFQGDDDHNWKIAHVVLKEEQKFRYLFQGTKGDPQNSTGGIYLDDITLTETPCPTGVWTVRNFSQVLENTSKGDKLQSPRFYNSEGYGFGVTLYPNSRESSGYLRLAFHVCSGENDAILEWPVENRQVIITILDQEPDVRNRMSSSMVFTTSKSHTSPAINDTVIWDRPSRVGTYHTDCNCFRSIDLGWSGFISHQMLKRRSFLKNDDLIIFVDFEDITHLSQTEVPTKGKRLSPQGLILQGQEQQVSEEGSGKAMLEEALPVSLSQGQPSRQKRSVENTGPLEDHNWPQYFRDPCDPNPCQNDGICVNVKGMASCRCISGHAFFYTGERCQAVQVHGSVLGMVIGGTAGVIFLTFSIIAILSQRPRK
The description is as above. Format: biochemical. The settings on record: geometric mean (geometric SD factor in parentheses); for pKi: Morrison's equation, read-out: Meprin alpha Ki(app); for pIC50: read-out: Meprin alpha IC50. The protocol:
as §1, §2

The structures appear in SMILES notation. pIC50, pKi: −log10 of the molar value.

Regarding `O=C(NO)C1c2ccccc2-c2[nH]nc(-c3ccccc3)c21` (stereo not shown) [Example 67, 3-Phenyl-1,4-dihydroindeno[1,2-c]pyrazole-4-carbohydroxamic acid], in assay [1], the pKi was 5.78 and the pIC50 is 5.75. Besides, in assay [2], the pKi is 7.41 and the pIC50 was 7.40.
On to `O=C(Cc1c(-c2cccc(C(=O)O)c2)[nH]nc1[C@H]1CC[C@H](C(=O)O)CC1)NO` [Example 78, trans-3-[3-(4-Carboxycyclohexyl)-4-[2-(hydroxyamino)-2-oxo-ethyl]-1H-pyrazol-5-yl]benzoic acid], for which the pKi in assay [1] was 7.68; in assay [2], 7.70. Also, the results for the pIC50 in assay [1] and in assay [2] were 7.68 and 7.70, respectively.
For `O=C(Cc1c(-c2ccc(C(=O)O)cc2)n[nH]c1-c1ccc(C(=O)O)cc1)NO` [Example 59, 4-[3-(4-Carboxyphenyl)-4-[2-(hydroxyamino)-2-oxo-ethyl]-1H-pyrazol-5-yl]benzoic acid], in assay [1], the pKi was 6.94 and the pIC50 is 6.89. In assay [2], the pKi is 7.25 and the pIC50 was 7.25.
Take `N#Cc1ccc(-c2n[nH]c(-c3ccccc3)c2CC(=O)NO)cc1` [Example 56, 2-[3-(4-Cyanophenyl)-5-phenyl-1H-pyrazol-4-yl]ethanehydroxamic acid]: the pKi in assay [1] is 6.00; in assay [2], 7.85. In addition, the pIC50 in assay [1] is 5.99; in assay [2] it was 7.85.
For `O=C(Cc1c(-c2cc(O)no2)n[nH]c1-c1ccccc1)NO` [Example 69, 2-[3-(3-Hydroxyisoxazol-5-yl)-5-phenyl-1H-pyrazol-4-yl]ethanehydroxamic acid], in assay [1], the pKi is 7.85 and the pIC50 was 7.85. For the same compound, in assay [2], the pKi was 7.80 and the pIC50 is 7.77.
For `O=C(Cc1c(-c2cccc(C(=O)O)c2)n[nH]c1-c1ccccc1)NO` [Example 51, 3-[4-[2-(Hydroxyamino)-2-oxo-ethyl]-5-phenyl-1H-pyrazol-3-yl]benzoic acid], the pKi in assay [1] is 7.33; in assay [2] it was 8.10. The pIC50 was 7.28 in assay [1] and 8.10 in assay [2].
Consider `O=C(Cn1c(-c2ccc(Cl)c(O)c2F)nc2c(C(=O)O)cccc21)NO` [Example 20, 2-(4-Chloro-2-fluoro-3-hydroxy-phenyl)-1-[2-(hydroxyamino)-2-oxo-ethyl]benzimidazole-4-carboxylic acid], for which the pKi is 5.94 in assay [1] and 6.04 in assay [2]. Also, the figures for the pIC50 in assay [1] and in assay [2] were 5.93 and 6.04, respectively.
In the case of `O=C(Cc1c(Cc2ccccc2)n[nH]c1-c1ccccc1)NO` [Example 46, 2-(3-Benzyl-5-phenyl-1H-pyrazol-4-yl)ethanehydroxamic acid], in assay [1], the pKi is 5.76 and the pIC50 was 5.75. Besides, in assay [2], the pKi is 7.15 and the pIC50 was 7.15.
On to `COc1ccc(-c2nc3ccccc3n2CC(=O)NO)cc1` [Example 15, 2-[2-(4-Methoxyphenyl)benzimidazol-1-yl]ethanehydroxamic acid], for which, in assay [1], the pKi is 6.60 and the pIC50 is 6.59. In assay [2], the pKi is 7.03 and the pIC50 was 7.02.
Turning to `O=C(Cc1c(-c2ccccc2)[nH]nc1[C@H]1CC[C@H](C(=O)O)CC1)NO` [Example 76, trans-4-[4-[2-(Hydroxyamino)-2-oxo-ethyl]-5-phenyl-1H-pyrazol-3-yl]cyclohexanecarboxylic acid], the pKi was 7.01 in assay [1] and 7.92 in assay [2]. Further, the figures for the pIC50 in assay [1] and in assay [2] were 7.01 and 7.92, respectively.
Consider `O=C(Cc1c([C@@H]2CCCC[C@@H]2C(=O)O)n[nH]c1-c1ccccc1)NO` [Example 73, (1S,2R)-2-[4-[2-(Hydroxyamino)-2-oxoethyl]-5-phenyl-1H-pyrazol-3-yl]cyclohexanecarboxylic acid], for which, in assay [1], the negative logarithm of the Ki (pKi) was 7.48 and the pIC50 was 7.48. In assay [2], the pKi is 9.59 and the pIC50 was 9.47.
As for `O=C(Cn1c(-c2cccc(C(=O)O)c2)nc2ccccc21)NO` [Example 18, 3-[1-[2-(Hydroxyamino)-2-oxo-ethyl]benzimidazol-2-yl]benzoic acid], in assay [1], the pKi is 6.80 and the pIC50 was 6.79. In addition, in assay [2], the pKi is 7.21 and the pIC50 is 7.20.
For `N#Cc1cccc(-c2n[nH]c(-c3ccccc3)c2CC(=O)NO)c1` [Example 55, 2-[3-(3-Cyanophenyl)-5-phenyl-1H-pyrazol-4-yl]ethanehydroxamic acid] the same measures were 6.47, 6.46, 8.30 and 8.30.
For `O=C(CCc1c(-c2ccccc2)nn(Cc2ccc(Cl)c(O)c2F)c1-c1ccccc1)NO` [Example 72, 3-[1-[(4-chloro-2-fluoro-3-hydroxy-phenyl)methyl]-3,5-diphenyl-pyrazol-4-yl]propanehydroxamic acid] the same measures were 5.93, 5.92, 9.82 and 9.66.
For `O=C(Cc1c(-c2ccccc2)[nH]nc1[C@H]1CC[C@@H](C(=O)O)CC1)NO` [Example 75, cis-4-[4-[2-(Hydroxyamino)-2-oxo-ethyl)-5-phenyl-1H-pyrazol-3-yl]cyclohexanecarboxylic acid] the same measures were 7.46, 7.46, 8.00 and 8.00.
With `O=C(NO)C1Cc2ccccc2-c2[nH]nc(-c3ccccc3)c21` (stereo not shown) [Example 68, 3-Phenyl-4,5-dihydro-1H-benzo[g]indazole-4-carbohydroxamic acid], in assay [1], the pKi was 5.60 and the pIC50 is 5.59. Moreover, in assay [2], the pKi was 7.21 and the pIC50 was 7.21.
Regarding `O=C(Cc1c(-c2cccc(C(=O)O)c2)n[nH]c1-c1cccc(C(=O)O)c1)NO` [Example 58, 3-[3-(3-Carboxyphenyl)-4-[2-(hydroxyamino)-2-oxo-ethyl]-1H-pyrazol-5-yl]benzoic acid], in assay [1], the pKi is 7.85 and the pIC50 was 7.77. For the same compound, in assay [2], the pKi is 8.00 and the pIC50 was 7.96.
Consider `O=C(Cc1c(-c2ccc3c(c2)OCO3)n[nH]c1-c1ccc(C(=O)O)cc1)NO` [Example 62, 4-[3-(1,3-Benzodioxol-5-yl)-4-[2-(hydroxyamino)-2-oxo-ethyl]-1H-pyrazol-5-yl)benzoic acid], for which, in assay [1], the pKi was 7.03 and the pIC50 was 7.03. For the same compound, in assay [2], the pKi was 8.00 and the pIC50 is 7.96.
In the case of `O=C(Cc1c(-c2ccc3c(c2)OCO3)n[nH]c1-c1cccc(C(=O)O)c1)NO` [Example 61, 3-[3-(1,3-Benzodioxol-5-yl)-4-[2-(hydroxyamino)-2-oxo-ethyl]-1H-pyrazol-5-yl)benzoic acid], in assay [1], the pKi is 7.36 and the pIC50 was 7.35. In assay [2], the pKi is 8.52 and the pIC50 is 8.52.

The term pKi denotes the negative decadic logarithm of the Ki, by convention in mol/L. The term pIC50 denotes the IC50 on a negative log10 scale, so that one unit is a factor of ten.
